From patent US9695155B2, “Herbicidal substituted pyrimidinyloxy benzene compounds” (E. I. DU PONT DE NEMOURS AND COMPANY, priority 2013, dated 2017)

Key:
[1] = system: Heteranthera limosa; test: Test B flooded paddy test; type: in vivo; conditions: Flood, 250 g ai/ha; 0 to 100 scale where 0 is no effect and 100 is complete control
Outline: (§1)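 Greenhouse flooded-pot test: compounds dosed into 3 cm standing water over 2-leaf plants, flood held constant. Rated visually after 13–15 days on 0–100 (complete control = 100); a dash marks no test result.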

[2] = system: giant foxtail; test: Test A preemergence; type: in vivo, Setaria faberii
Outline: (§2)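 Compounds in non-phytotoxic solvent with surfactant applied as soil spray preemergence, or postemergence to plants 2-10 cm at one- to two-leaf stage, in loam/sand. After approximately 10 days in greenhouse, injury rated visually versus untreated controls, 0 (no effect) to 100 (complete control).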

[3] = system: sedge, umbrella; test: Test B flooded paddy test; type: in vivo, Cyperus difformis; conditions: Flood, 250 g ai/ha; 0 to 100 scale where 0 is no effect and 100 is complete control
Outline: as §1

[4] = system: wheat; test: Test A postemergence; type: in vivo, Triticum aestivum
Outline: as §2

[5] = system: large (Lg) crabgrass; test: Test A postemergence; type: in vivo, Digitaria sanguinalis
Outline: as §2

[6] = system: corn; test: Test A postemergence; type: in vivo, Zea mays
Outline: as §2

[7] = system: pigweed; test: Test A postemergence; type: in vivo, Amaranthus retroflexus
Outline: as §2

[8] = system: barnyardgrass; test: Test A postemergence; type: in vivo, Echinochloa crus-galli
Outline: as §2

[9] = system: giant foxtail; test: Test A postemergence; type: in vivo, Setaria faberii
Outline: as §2

[10] = system: corn; test: Test A preemergence; type: in vivo, Zea mays
Outline: as §2

[11] = system: pigweed; test: Test A preemergence; type: in vivo, Amaranthus retroflexus
Outline: as §2

[12] = system: barnyardgrass; test: Test B flooded paddy test; type: in vivo, Echinochloa crus-galli; conditions: Flood, 250 g ai/ha; 0 to 100 scale where 0 is no effect and 100 is complete control
Outline: as §1

[13] = system: large (Lg) crabgrass; test: Test A preemergence; type: in vivo, Digitaria sanguinalis
Outline: as §2

[14] = system: velvetleaf; test: Test A postemergence; type: in vivo, Abutilon theophrasti
Outline: as §2

[15] = system: rice; test: Test B flooded paddy test; type: in vivo, Oryza sativa; conditions: Flood, 250 g ai/ha; 0 to 100 scale where 0 is no effect and 100 is complete control
Outline: as §1

[16] = system: barnyardgrass; test: Test A preemergence; type: in vivo, Echinochloa crus-galli
Outline: as §2

[17] = system: morningglory; test: Test A postemergence; type: in vivo, Ipomoea spp.
Outline: as §2

[18] = system: velvetleaf; test: Test A preemergence; type: in vivo, Abutilon theophrasti
Outline: as §2

[19] = system: morningglory; test: Test A preemergence; type: in vivo, Ipomoea spp.
Outline: as §2

[20] = system: wheat; test: Test A preemergence; type: in vivo, Triticum aestivum
Outline: as §2

[21] = 500 g ai/ha, 0 to 100 scale where 0 is no effect and 100 is complete control
[22] = 125 g ai/ha, 0 to 100 scale where 0 is no effect and 100 is complete control
[23] = 125 g ai/ha, 0 to 100 scale, 0 no effect, 100 complete control
[24] = 500 g ai/ha, 0 to 100 scale, 0 no effect, 100 complete control, approx. 10 days
[25] = 500 g ai/ha, 0 to 100 scale, 0 no effect, 100 complete control

## Clc1cnc(Oc2cccc(-c3ccccc3)c2-n2cc(Br)cn2)nc1 [Compound 195]
[1]
  Plant response rating, Ducksalad: 20
[2]; 125 g ai/ha
  Foxtail, Giant plant response rating (0 to 100 scale): 10
[2]; [21]
  Foxtail, Giant plant response rating: 80
[3]
  Plant response rating, Sedge, Umbrella: 30
[4]; [22]
  Wheat plant response rating: 0
[4]; [21]
  Plant response rating, Wheat: 0
[5]; [22]
  Crabgrass, Large plant response rating: 40
[5]; [21]
  Plant response rating, Crabgrass, Large: 60
[6]; [22]
  Corn plant response rating: 0
[6]; [21]
  Plant response rating, Corn: 20
[7]; [22]
  Pigweed plant response rating: 60
[7]; [21]
  Plant response rating, Pigweed: 80
[8]; [22]
  Barnyardgrass plant response rating: 0
[8]; [21]
  Plant response rating, Barnyardgrass: 20
[9]; [22]
  Foxtail, Giant plant response rating: 10
[9]; [21]
  Plant response rating, Foxtail, Giant: 50
[10]; 125 g ai/ha
  Corn plant response rating (0 to 100 scale): 0
[10]; [21]
  Corn plant response rating: 0
[11]; 125 g ai/ha
  Pigweed plant response rating (0 to 100 scale): 0
[11]; [21]
  Pigweed plant response rating: 40
[12]
  Plant response rating, Barnyardgrass: 0
[13]; [21]
  Crabgrass, Large plant response rating: 70
[14]; [22]
  Velvetleaf plant response rating: 50
[14]; [21]
  Plant response rating, Velvetleaf: 100
[15]
  Plant response rating, Rice: 20
[16]; 125 g ai/ha
  Barnyardgrass plant response rating (0 to 100 scale, 0 is no effect, 100 is complete control): 0
[16]; [21]
  Barnyardgrass plant response rating: 0
[17]; [22]
  Morningglory plant response rating: 30
[17]; [21]
  Plant response rating, Morningglory: 70
[18]; 125 g ai/ha
  Velvetleaf plant response rating (0 to 100 scale): 0
[18]; [21]
  Velvetleaf plant response rating: 20
[19]; 125 g ai/ha
  Morningglory plant response rating (0 to 100 scale): 0
[19]; [21]
  Morningglory plant response rating: 10
[20]; 125 g ai/ha
  Wheat plant response rating (0 to 100 scale): 0
[20]; [21]
  Wheat plant response rating: 0

## CCOC(=O)c1cnn(-c2c(C#N)cccc2Oc2ncc(Cl)cn2)c1 [Compound 301]
[1]
  Plant response rating, Ducksalad: 0
[2]; 125 g ai/ha
  Foxtail, Giant plant response rating (0 to 100 scale): 0
[2]; [21]
  Foxtail, Giant plant response rating: 0
[3]
  Plant response rating, Sedge, Umbrella: 0
[4]; [23]
  Plant response rating, Wheat: 0
[4]; [21]
  Plant response rating, Wheat: 0
[5]; [23]
  Plant response rating, Crabgrass, Large: 0
[5]; [21]
  Plant response rating, Crabgrass, Large: 0
[6]; [23]
  Plant response rating, Corn: 0
[6]; [21]
  Plant response rating, Corn: 0
[7]; [23]
  Plant response rating, Pigweed: 0
[7]; [21]
  Plant response rating, Pigweed: 30
[8]; [23]
  Plant response rating, Barnyardgrass: 0
[8]; [21]
  Plant response rating, Barnyardgrass: 0
[9]; [23]
  Plant response rating, Foxtail, Giant: 0
[9]; [21]
  Plant response rating, Foxtail, Giant: 0
[10]; 125 g ai/ha
  Corn plant response rating (0 to 100 scale): 0
[10]; [21]
  Corn plant response rating: 0
[11]; 125 g ai/ha
  Pigweed plant response rating (0 to 100 scale): 0
[11]; [21]
  Pigweed plant response rating: 0
[12]
  Plant response rating, Barnyardgrass: 0
[13]; 125 g ai/ha
  Crabgrass, Large plant response rating (0 to 100 scale): 0
[13]; [21]
  Crabgrass, Large plant response rating: 0
[14]; [23]
  Plant response rating, Velvetleaf: 0
[14]; [21]
  Plant response rating, Velvetleaf: 0
[15]
  Plant response rating, Rice: 0
[16]; 125 g ai/ha
  Barnyardgrass plant response rating (0 to 100 scale, 0 is no effect, 100 is complete control): 0
[16]; [21]
  Barnyardgrass plant response rating: 0
[17]; [23]
  Plant response rating, Morningglory: 0
[17]; [21]
  Plant response rating, Morningglory: 0
[18]; 125 g ai/ha
  Velvetleaf plant response rating (0 to 100 scale): 0
[18]; [21]
  Velvetleaf plant response rating: 0
[19]; 125 g ai/ha
  Morningglory plant response rating (0 to 100 scale): 0
[19]; [21]
  Morningglory plant response rating: 0
[20]; 125 g ai/ha
  Wheat plant response rating (0 to 100 scale): 0
[20]; [21]
  Wheat plant response rating: 0

## Fc1cnc(Oc2ccccc2-n2cc(Cl)cn2)nc1 [Compound 11]
[1]
  Plant response rating, Ducksalad: 50
[2]; [22]
  Foxtail, Giant plant response rating: 90
[2]; [24]
  Foxtail, Giant plant response rating: 100
[3]
  Plant response rating, Sedge, Umbrella: 0
[4]; [22]
  Plant response rating, Wheat: 0
[4]; [25]
  Plant response rating, Wheat: 20
[5]; [22]
  Plant response rating, Crabgrass, Large: 70
[5]; [25]
  Plant response rating, Crabgrass, Large: 90
[6]; [22]
  Plant response rating, Corn: 10
[6]; [25]
  Plant response rating, Corn: 50
[7]; [22]
  Plant response rating, Pigweed: 100
[7]; [25]
  Plant response rating, Pigweed: 100
[8]; [22]
  Plant response rating, Barnyardgrass: 10
[8]; [25]
  Plant response rating, Barnyardgrass: 90
[9]; [22]
  Plant response rating, Foxtail, Giant: 70
[9]; [25]
  Plant response rating, Foxtail, Giant: 90
[10]; [22]
  Corn plant response rating: 0
[10]; [24]
  Corn plant response rating: 30
[11]; [22]
  Pigweed plant response rating: 90
[11]; [24]
  Pigweed plant response rating: 100
[12]
  Plant response rating, Barnyardgrass: 0
[13]; [22]
  Crabgrass, Large plant response rating: 90
[13]; [24]
  Crabgrass, Large plant response rating: 100
[14]; [22]
  Plant response rating, Velvetleaf: 100
[14]; [25]
  Plant response rating, Velvetleaf: 100
[15]
  Plant response rating, Rice: 0
[16]; [22]
  Barnyardgrass plant response rating: 70
[16]; [24]
  Barnyardgrass plant response rating: 100
[17]; [22]
  Plant response rating, Morningglory: 60
[17]; [25]
  Plant response rating, Morningglory: 100
[18]; [22]
  Velvetleaf plant response rating: 90
[18]; [24]
  Velvetleaf plant response rating: 100
[19]; [22]
  Morningglory plant response rating: 30
[19]; [24]
  Morningglory plant response rating: 60
[20]; [22]
  Wheat plant response rating: 0
[20]; [24]
  Wheat plant response rating: 0

## N#Cc1cnn(-c2c(C=O)cccc2Oc2ncc(Cl)cn2)c1 [Compound 237]
[1]
  Plant response rating, Ducksalad: 0
[2]; 125 g ai/ha
  Foxtail, Giant plant response rating (0 to 100 scale): 0
[2]; [21]
  Foxtail, Giant plant response rating: 0
[3]
  Plant response rating, Sedge, Umbrella: 0
[4]; [22]
  Wheat plant response rating: 0
[4]; [21]
  Plant response rating, Wheat: 0
[5]; [22]
  Crabgrass, Large plant response rating: 0
[5]; [21]
  Plant response rating, Crabgrass, Large: 0
[6]; [22]
  Corn plant response rating: 0
[6]; [21]
  Plant response rating, Corn: 0
[7]; [22]
  Pigweed plant response rating: 30
[7]; [21]
  Plant response rating, Pigweed: 70
[8]; [22]
  Barnyardgrass plant response rating: 0
[8]; [21]
  Plant response rating, Barnyardgrass: 0
[9]; [22]
  Foxtail, Giant plant response rating: 0
[9]; [21]
  Plant response rating, Foxtail, Giant: 0
[10]; 125 g ai/ha
  Corn plant response rating (0 to 100 scale): 0
[10]; [21]
  Corn plant response rating: 0
[11]; 125 g ai/ha
  Pigweed plant response rating (0 to 100 scale): 0
[11]; [21]
  Pigweed plant response rating: 80
[12]
  Plant response rating, Barnyardgrass: 0
[13]; 125 g ai/ha
  Crabgrass, Large plant response rating (0 to 100 scale): 0
[13]; [21]
  Crabgrass, Large plant response rating: 10
[14]; [22]
  Velvetleaf plant response rating: 20
[14]; [21]
  Plant response rating, Velvetleaf: 30
[15]
  Plant response rating, Rice: 0
[16]; 125 g ai/ha
  Barnyardgrass plant response rating (0 to 100 scale, 0 is no effect, 100 is complete control): 0
[16]; [21]
  Barnyardgrass plant response rating: 10
[17]; [22]
  Morningglory plant response rating: 0
[17]; [21]
  Plant response rating, Morningglory: 0
[18]; 125 g ai/ha
  Velvetleaf plant response rating (0 to 100 scale): 0
[18]; [21]
  Velvetleaf plant response rating: 10
[19]; 125 g ai/ha
  Morningglory plant response rating (0 to 100 scale): 0
[19]; [21]
  Morningglory plant response rating: 0
[20]; 125 g ai/ha
  Wheat plant response rating (0 to 100 scale): 0
[20]; [21]
  Wheat plant response rating: 0
